Patent US7705022B2, “IDO inhibitors and methods of use thereof” (Lankenau Institute for Medical Research, priority 2005, dated 2010)

What was measured:
human IDO = human IDO (Homo sapiens, UniProt P14902); assay: IDO inhibition assay (formation of kynurenine, read at 490 nm); assay type: biochemical; conditions: for Ki (IDO inhibition data) / Ki: average of two or three trials, inhibitors tested at 200 and 400 μM, L-Trp 200 to 25 μM, N.I. = no inhibition detected
IDO = conditions: cited from earlier work; for type of IDO inhibition: literature

Chain of human IDO (P14902 whole entry): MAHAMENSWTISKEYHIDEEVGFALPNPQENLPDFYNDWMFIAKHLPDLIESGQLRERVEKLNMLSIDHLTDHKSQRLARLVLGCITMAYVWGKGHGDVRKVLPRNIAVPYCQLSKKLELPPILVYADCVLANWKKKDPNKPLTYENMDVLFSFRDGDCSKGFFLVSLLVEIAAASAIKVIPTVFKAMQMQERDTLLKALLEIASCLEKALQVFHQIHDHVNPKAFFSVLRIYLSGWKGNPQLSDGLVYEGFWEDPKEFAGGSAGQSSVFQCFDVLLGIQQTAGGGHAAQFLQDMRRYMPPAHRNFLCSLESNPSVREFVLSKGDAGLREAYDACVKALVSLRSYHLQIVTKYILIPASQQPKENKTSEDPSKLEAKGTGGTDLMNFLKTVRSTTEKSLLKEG

CSC(=O)NCc1c[nH]c2ccccc12 [Compound 21, Brassitin, reference compound]
IDO inhibitory activity in words (human IDO): complete loss in inhibitory activity | Ki (IDO inhibition data) (human IDO): N.I.

c1ccc2c(c1)[nH]c1cnccc12 [β-carboline]
type of IDO inhibition (IDO): non-competitive

CCCCc1cc2c(cn1)[nH]c1ccccc12 [3-butyl-β-carboline]
Ki (IDO; literature value): 3.3 µM | type of IDO inhibition (IDO): non-competitive

CNC(=S)NCc1c[nH]c2ccccc12 [Compound 19, N-[l-(Indol-3-yl)methyl]-N′-methyl-thiourea]
melting point: 148 to 150 °C | IDO inhibitory activity in words (human IDO): weaker or no inhibition | Ki (IDO inhibition data) (human IDO): N.I.^a

CSC(=S)NCCc1ccccc1 [Compound 9, N-Phenethyl-S-methyl-dithiocarbamate]
IDO inhibitory activity in words (human IDO): significant inhibitory activity | Ki (human IDO): 62.4 µM

S=C(S)N1CCCC1 [pyrrolidine dithiocarbamate]
effect on IDO in words (IDO; literature report): inhibits IDO

N-(Adamant-2-yl)-S-methyl-dithiocarbamate [Compound 6]
Ki (human IDO): 180 µM
